Test results as given in patent US10874652B2, “Muscle regeneration” (The Research Foundation for The State University of New York, priority 2016, dated 2020).

Tests used:
dystrophic (mdx4cv) mice [1] = assay: Muscle inflammation, CD45+ leukocyte infiltration of gastrocnemius muscle; type: in vivo, mouse; details: 200 mg/kg, 12 weeks, vs saline
Description: (§1) The objective of this experiment was to determine whether elastase inhibitors can reduce inflammation and/or fibrosis. To test this, cross-sections of the gastrocnemius muscle of mice that were treated with either Elastatinal or saline solution were stained with Picrosirius red, or labelled with an anti-CD45 antibody or an anti-laminin antibody. Picrosirius red allows to differentiate between collagen and the rest of the tissue as it stains the collagen a different colour. The anti-CD45 antibody allows the detection of infiltrating leukocytes (which are a marker of inflammation), and the anti-laminin antibody allows the detection of the periphery of myofibres. Both, the amount of fibrosis and the amount of infiltrated CD45+ leukocytes were reduced with Elastatinal treatment, supporting the hypothesis that elastase activity inhibition reduces fibrosis and inflammation.
(§2) For this experiment, the mice were treated with an injection of 200 mg/kg of Elastatinal dissolved in a saline solution (0.9% NaCl) to a concentration of 20 mg/mL. Control mice were treated with an equal volume of saline. […]
To measure the extent of inflammation, the numbers of infiltrating leucocyte, recognized by immunostaining for CD45 (BD Biosciences) were scored as percentage of area positive to CD45 immunostaining using a written script for Fiji softwate (available at http://fiji.sc) (FIG. 10 D).

myoblasts = assay: Elastase-induced myoblast cell loss ex vivo; type: cell-based; details: 100 μM inhibitor with 0.75 U/mL elastase, 24 hours, myoblasts on uncoated plates
Description: In order to determine the effect of elastase inhibitors on cultures myoblasts, myoblasts were seeded at the density of 7,000 cells/well in 12 multi-well plates (Corning) and grown for 1 day in growth medium. Twenty-four hours after plating, 0.75 U/mL of purified elastase (Sigma Aldrich) were added to the culture medium in the absence (Ela) or presence of either 100 μM Sivelestat (Ela+Sivelestat) or 100 μM Elastatinal (Ela+Elastatinal) and cultured for additional 24 hours. Quantification of total cell numbers per image was done in triplicates and plotted as average±standard error of the mean. NT=non-treated cultures, that received neither elastase nor elastase inhibitors. **=p<0.01.

dystrophic (mdx4cv) mice [2] = assay: Muscle fibre size (minimum Feret diameter) in dystrophic mice; type: in vivo, mouse; details: 200 mg/Kg intraperitoneally twice a week, 12 weeks, gastrocnemius muscle, vs saline
Description: To test whether inhibition of elastase activity promoted muscle regeneration in vivo in dystrophic mice, dystrophic (mdx4cv strain) mice were treated with either the elastase inhibitor Elastatinal (dissolved in saline solution) or saline solution for 12 weeks and muscle fibre size was assayed.
Elastatinal (Enzo Life Sciences) was dissolved in a saline solution (0.9% NaCl) to the concentration of 20 mg/mL and then, either 200 mg/Kg body weight of Elastatinal or an equal volume of saline solution were injected twice a week intraperitoneally into the dystrophic (mdx4cv) mice. After 12 weeks of treatment animals were culled and several muscles dissected, embedded in Optimal Cutting Medium (OCT, Fisher) and frozen in liquid nitrogen-cooled isopentane (Sigma) for histopathological analysis.
To measure the extent of muscle regeneration, myofibre size was estimated. Sections of the gastrocnemius muscle of either Elastatinal-treated or saline-treated mice were immunostained to detect laminin which marks the periphery of each muscle fibre and then the programme SMASH′ was used to calculate the minimum Feret diameter as a direct measure of myofibre size.

dystrophic (mdx4cv) mice [3] = assay: Muscle fibrosis, Picrosirius red staining of gastrocnemius muscle; type: in vivo, mouse; details: 200 mg/kg, 12 weeks, vs saline
Description: as §1, §2
The amount of Picrosirius red staining was quantified by selecting re pixels and quantifying the red area using the ImageJ function “Analyze particles”. Averages of 10 technical replicates for each one of 3 biological replicates (N=30) were analysed (FIG. 10 B).

dystrophic (mdx4cv) mice [4] = assay: Grip strength, Kondziela's inverted screen test in dystrophic mice; type: in vivo, mouse
Description: To test whether elastase inhibition is effective in counteracting the devastating effects of the muscular dystrophy symptoms, we injected dystrophic (mdx4cv) mice with either 100 mg/Kg body weight of Elastatinal dissolved in sterile saline solution (0.9% […]) or with vehicle (sterile saline solution) alone (n=3) twice a week for 6 weeks then measured the grip strength of all 4 limbs using Kondziela's inverted screen test. Each animal was offered three attempts to reach 90 seconds of grip before falling then the best performance was assigned a score (1 to 6 for every 15 seconds spent on the grid, e.g.: 1-14 seconds=score 1, 15-29 seconds=score 2, etc.). Scores were averaged and plotted as mean±the standard error of the mean.
In addition to the above mentioned experiment, Elastatinal was dissolved in a saline solution (0.9% NaCl) to a concentration of 20 mg/mL and then either 200 mg/Kg body weight of Elastatinal or an equal volume of saline solution were injected twice a week for 12 weeks intraperitoneally into dystrophic (mdx4cv) mice. At 8, 10 and 12 weeks of treatment, muscle function (grip strength) of the mice was measured using Kondziella's inverted screen test. A 1-6 score was assigned for every 15 seconds of the total time spent by the mouse on the inverted grid such that a score of 6 indicates at least 90 seconds of latency to fall. […] Error bars are S.E.M. **=p<0.01.

elastase = assay: Elastase activity in cell culture medium (fluorescent substrate cleavage); type: biochemical; details: 100 μM inhibitor, 0.75 U/mL purified elastase pre-incubated 1 hour
Description: The percentage of substrate cleavage (substrate conversion to product) was monitored over time by recording product formation every minute for 30 minutes (30 cycles of instrument recording) using a Pierce EZ-Reader.

Row | Structure (SMILES) | amount of infiltrated CD45+ leukocytes (dystrophic (mdx4cv) mice [1]) | elastase-induced cell loss (myoblasts) | muscle fibre size (minimum Feret diameter) (dystrophic (mdx4cv) mice [2]) | amount of fibrosis (dystrophic (mdx4cv) mice [3]) | muscle strength (grip strength) (dystrophic (mdx4cv) mice [4]; 100 mg/Kg twice a week for 6 weeks, vs vehicle) | grip strength (dystrophic (mdx4cv) mice [4]; 200 mg/Kg intraperitoneally twice a week for 12 weeks, measured at 8, 10 and 12 weeks, vs saline) | reduction of elastase activity (elastase)
1 | CC(C)C[C@H](NC(=O)N[C@H](C(=O)N[C@@H](CCC(N)=O)C(=O)N[C@@H](C)C=O)[C@@H]1CCNC(=N)N1)C(=O)O [Elastatinal] | reduced | prevents elastase-induced cell loss | increasing muscle fibre size | reduced | improved muscle strength | statistically significantly improved grip strength | approximately 80%
2 | CC(C)(C)C(=O)Oc1ccc(S(=O)(=O)Nc2ccccc2C(=O)NCC(=O)O)cc1 [Sivelestat] | – | prevents elastase-induced cell loss | – | – | – | – | approximately 80%
